Reference: ChEMBL document CHEMBL1201862, “PubChem BioAssay data set” (2004)
The source made the active and inactive calls.

Assays:
[1] = target: Botulinum neurotoxin type F (Clostridium botulinum, UniProt P30996); test: High-throughput multiplex microsphere dose response for inhibitors of toxin protease, specifically Botulinum neurotoxin light chain F protease, compounds from Cherry Pick 02.; assay type: functional; conditions: read-out: EC50_MICROM
[2] = target: Beta-lactamase (Salmonella choleraesuis (strain SC-B67), UniProt Q5J463); test: Epi-absorbance-based counterscreen for selective VIM-2 inhibitors: dose response biochemical high throughput screening assay to identify inhibitors of TEM-1 serine-beta-lactamase.
Beta-lactamase (Salmonella choleraesuis (strain SC-B67), UniProt Q5J463), sequence (Q5J463 whole entry): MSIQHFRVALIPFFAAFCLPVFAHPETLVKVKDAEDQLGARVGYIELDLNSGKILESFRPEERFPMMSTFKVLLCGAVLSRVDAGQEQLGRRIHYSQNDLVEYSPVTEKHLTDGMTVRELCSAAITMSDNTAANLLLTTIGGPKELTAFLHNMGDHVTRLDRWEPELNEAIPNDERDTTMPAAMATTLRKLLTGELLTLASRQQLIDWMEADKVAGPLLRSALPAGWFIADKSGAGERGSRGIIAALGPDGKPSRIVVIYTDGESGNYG

[3] = target: T1, Beta-lactamase (Pseudomonas aeruginosa, UniProt Q79MP6); test: IMP-1 metallo-beta-lactamase inhibitors, dose response, selectivity assay for VIM-2 inhibitor project, biochemical, epi-absorbance (AID 1920)
T1 sequence (Q79MP6 whole entry): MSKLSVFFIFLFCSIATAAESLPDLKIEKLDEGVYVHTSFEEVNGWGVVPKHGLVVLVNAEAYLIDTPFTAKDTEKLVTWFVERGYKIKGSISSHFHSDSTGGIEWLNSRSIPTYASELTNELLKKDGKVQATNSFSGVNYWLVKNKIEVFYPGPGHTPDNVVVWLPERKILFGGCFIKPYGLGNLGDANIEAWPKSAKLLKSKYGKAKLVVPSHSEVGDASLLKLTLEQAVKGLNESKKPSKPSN

[4] = target: T2, Beta Lactamase (Pseudomonas aeruginosa, UniProt Q932Y6); test: VIM-2 metallo-beta-lactamase inhibitor potency, dose response, biochemical, epi-absorbance readout, selective inhibitors (AID 1919)
T2 sequence (Q932Y6 whole entry): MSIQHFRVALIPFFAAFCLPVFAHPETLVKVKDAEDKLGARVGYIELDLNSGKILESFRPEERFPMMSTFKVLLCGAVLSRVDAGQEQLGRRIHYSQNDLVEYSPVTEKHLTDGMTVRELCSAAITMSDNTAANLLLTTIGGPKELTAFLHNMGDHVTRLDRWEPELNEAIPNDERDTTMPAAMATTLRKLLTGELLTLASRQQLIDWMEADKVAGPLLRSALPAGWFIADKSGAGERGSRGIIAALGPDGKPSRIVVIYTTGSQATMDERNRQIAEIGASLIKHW

[5] = target: T1, Beta-lactamase; test: […] counterscreen for selective VIM-2 inhibitors: dose response biochemical high throughput screening assay to identify inhibitors of IMP-1 metallo-beta-lactamase.
[6] = target: T2, Beta Lactamase; test: VIM-2 inhibitor FRET-based artefact check, dose response, artefact control for selective VIM-2 inhibitor project, biochemical, FRET readout, CCF2 substrate (AID 1926)
[7] = target: Protein S100-A4 (Homo sapiens, UniProt P26447); test: S100A4-myosin IIA binding inhibitor potency, dose response, biochemical, fluorescence polarization, cherry-picked hits (AID 687001); assay type: functional
Protein S100-A4, sequence (P26447 whole entry): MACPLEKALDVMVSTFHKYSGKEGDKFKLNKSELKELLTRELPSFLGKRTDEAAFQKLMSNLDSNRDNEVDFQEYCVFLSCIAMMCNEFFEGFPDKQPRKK

[8] = target: T3, Replicative DNA helicase DnaB (Mycobacterium tuberculosis, UniProt P9WMR3); test: DnaB intein splicing inhibitors, dose response, biochemical, cell-free fluorescence (AID 449749); assay type: functional
T3 sequence (P9WMR3 whole entry): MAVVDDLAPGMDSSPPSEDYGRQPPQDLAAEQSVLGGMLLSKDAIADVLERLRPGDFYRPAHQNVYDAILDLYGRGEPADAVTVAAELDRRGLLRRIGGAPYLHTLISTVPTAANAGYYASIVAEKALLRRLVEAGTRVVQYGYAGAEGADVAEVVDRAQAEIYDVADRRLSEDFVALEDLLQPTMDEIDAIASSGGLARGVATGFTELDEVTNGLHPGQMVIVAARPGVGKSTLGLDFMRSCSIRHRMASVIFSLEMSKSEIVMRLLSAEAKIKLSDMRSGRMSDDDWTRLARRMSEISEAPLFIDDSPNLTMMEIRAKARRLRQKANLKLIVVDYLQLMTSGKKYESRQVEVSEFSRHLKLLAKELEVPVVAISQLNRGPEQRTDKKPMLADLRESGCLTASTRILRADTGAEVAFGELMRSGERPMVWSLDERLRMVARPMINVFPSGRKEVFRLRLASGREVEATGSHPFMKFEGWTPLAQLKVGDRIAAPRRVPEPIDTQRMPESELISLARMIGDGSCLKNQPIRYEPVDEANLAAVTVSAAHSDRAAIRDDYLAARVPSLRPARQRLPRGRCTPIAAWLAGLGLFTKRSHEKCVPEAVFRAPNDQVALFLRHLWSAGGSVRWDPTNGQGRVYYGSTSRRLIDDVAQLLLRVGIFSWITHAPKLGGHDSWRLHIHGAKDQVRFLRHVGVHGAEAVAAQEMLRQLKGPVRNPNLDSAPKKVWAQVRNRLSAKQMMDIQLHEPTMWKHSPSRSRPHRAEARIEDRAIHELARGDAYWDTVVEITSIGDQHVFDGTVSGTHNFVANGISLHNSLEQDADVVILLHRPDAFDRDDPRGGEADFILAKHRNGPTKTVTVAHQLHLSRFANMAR

[9] = system: Vero; test: Vero cell cytotoxicity, cytotoxicity control for flavivirus capping enzyme inhibitors (AID 588742); assay type: functional; conditions: Chlorocebus sabaeus
[10] = target: T4, Protein RecA (Mycobacterium tuberculosis, UniProt P9WHJ3); test: Fluorescence Cell-Free Homogeneous Dose Retest to Identify Inhibitors of RecA-Intein Splicing Activity. [Related pubchem assays (depositor defined):AID2097, AID2223, AID489010, AID492950]; assay type: functional
T4 sequence (P9WHJ3 whole entry): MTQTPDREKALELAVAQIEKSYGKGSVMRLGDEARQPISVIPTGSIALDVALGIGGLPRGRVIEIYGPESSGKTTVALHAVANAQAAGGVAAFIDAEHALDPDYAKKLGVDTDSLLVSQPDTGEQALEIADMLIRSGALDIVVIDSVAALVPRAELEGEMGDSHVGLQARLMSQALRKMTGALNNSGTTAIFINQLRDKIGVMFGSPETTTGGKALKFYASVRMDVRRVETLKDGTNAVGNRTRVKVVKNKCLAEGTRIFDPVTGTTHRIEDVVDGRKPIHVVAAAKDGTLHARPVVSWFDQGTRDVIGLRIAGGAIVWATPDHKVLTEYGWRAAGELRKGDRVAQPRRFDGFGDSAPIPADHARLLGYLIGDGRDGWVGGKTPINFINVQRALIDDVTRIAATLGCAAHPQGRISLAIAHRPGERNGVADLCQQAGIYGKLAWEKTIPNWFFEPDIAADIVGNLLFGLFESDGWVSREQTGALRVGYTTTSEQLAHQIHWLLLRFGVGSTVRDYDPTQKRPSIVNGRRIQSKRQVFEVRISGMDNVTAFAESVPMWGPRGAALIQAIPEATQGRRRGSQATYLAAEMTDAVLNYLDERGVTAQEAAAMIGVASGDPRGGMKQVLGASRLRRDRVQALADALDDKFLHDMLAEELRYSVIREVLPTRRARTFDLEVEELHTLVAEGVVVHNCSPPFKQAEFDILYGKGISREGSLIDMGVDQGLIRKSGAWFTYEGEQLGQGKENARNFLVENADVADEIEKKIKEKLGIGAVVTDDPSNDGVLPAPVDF

[11] = target: T5, Sentrin-specific protease 8 (Homo sapiens, UniProt Q96LD8); assay type: functional
T5 sequence (Q96LD8 whole entry): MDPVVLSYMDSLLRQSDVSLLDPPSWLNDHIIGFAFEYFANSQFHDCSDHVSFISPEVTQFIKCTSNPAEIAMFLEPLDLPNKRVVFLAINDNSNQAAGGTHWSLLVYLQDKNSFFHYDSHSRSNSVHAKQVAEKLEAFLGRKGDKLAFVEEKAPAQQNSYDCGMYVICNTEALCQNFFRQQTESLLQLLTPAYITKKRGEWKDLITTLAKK

[12] = target: T5, Sentrin-specific protease 8; assay type: functional; remark: listed apart in the source
[13] = target: T6, Caspase-3 (Homo sapiens, UniProt P42574); test: Dose-response confirmation of uHTS inhibitor hits of Sentrin-Specific Protease 8 in a Caspase-3 Fluorescence assay.; assay type: functional
T6 sequence (P42574 whole entry): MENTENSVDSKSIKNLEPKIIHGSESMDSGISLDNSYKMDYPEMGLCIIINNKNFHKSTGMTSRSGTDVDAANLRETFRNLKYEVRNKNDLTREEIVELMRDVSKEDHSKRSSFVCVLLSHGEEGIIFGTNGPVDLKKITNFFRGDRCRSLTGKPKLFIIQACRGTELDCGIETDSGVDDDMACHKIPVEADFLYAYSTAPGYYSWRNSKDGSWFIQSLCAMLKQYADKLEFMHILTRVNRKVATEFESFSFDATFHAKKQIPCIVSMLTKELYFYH

[14] = Late stage assay provider results from the probe development effort to identify inhibitors of the Plasmodium falciparum M17 Leucine Aminopeptidase (M17LAP): radiolabel-based cell-based dose response assay to identify compounds that inhibit P. falciparum growth in RBCs Set 2.; assay type: functional
[15] = T. cruzi intracellular amastigote growth inhibition, dose response, imaging, CA-I/72 strain, bovine embryo skeletal muscle, dry powder (AID 651885); assay type: functional, cell-based

Botulinum neurotoxin type F, sequence (P30996 1-436 limits assumed): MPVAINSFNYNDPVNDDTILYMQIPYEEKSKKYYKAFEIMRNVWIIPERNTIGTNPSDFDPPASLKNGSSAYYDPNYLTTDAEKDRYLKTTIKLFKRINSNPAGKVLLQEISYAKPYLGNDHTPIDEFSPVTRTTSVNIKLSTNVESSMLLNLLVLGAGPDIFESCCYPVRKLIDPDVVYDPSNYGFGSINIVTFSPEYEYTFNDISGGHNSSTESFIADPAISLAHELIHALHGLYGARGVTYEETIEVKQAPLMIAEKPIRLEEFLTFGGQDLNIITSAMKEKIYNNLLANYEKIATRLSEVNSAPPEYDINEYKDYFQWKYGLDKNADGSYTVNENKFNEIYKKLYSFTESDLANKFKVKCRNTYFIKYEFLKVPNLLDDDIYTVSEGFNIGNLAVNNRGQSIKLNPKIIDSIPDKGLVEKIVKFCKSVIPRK

With COc1cccc(C(=O)OCC(=O)c2c[nH]c3ccccc23)c1O the EC50 [1] was > 20 µM (inactive).

For O=C(C1=C(O)C(=O)N(Cc2cccnc2)C1c1ccccn1)c1cccs1 (stereo not given), the IC50 [2] was > 59.6 µM (inactive), the IC50 [3] was > 59.6 µM (inactive) and the IC50 [4] was 13.2 µM (inactive). For the same compound, the IC50 [5] was > 59.6 µM (inactive) and the IC50 [6] was 4.83 µM (active).

With CN(C)c1ccc(C=Cc2nccc3ccccc23)cc1 the AC50 [7] was 774 nM (active).

For COc1ccc(/C=N/NC(=O)c2nn(-c3ccc(Cl)cc3)c(=O)c3c(N)scc23)cc1, the AC50 [8] was > 380 µM (inactive), the CC50 [9] was 22 µM (active) and the EC50 [10] was 4.62 µM (active). The IC50 [11] was 2.03 µM (active), the IC50 [12] was 967 nM (active) and the IC50 [13] was 11.9 µM (active).

In the case of CCCCOc1ccc(CN(O)C(=O)c2ccccc2)cc1, the IC50 [14] is reported as 13.6 µM (inactive).

In the case of CNC[C@H]1Oc2c(NC(=O)c3ccccc3)cccc2C(=O)N(C(C)C)C[C@@H]1C, the IC50 [15] is reported as > 20 µM (inactive).
